Results taken from patent publication US12162890B2 (Novartis AG, priority 2015, dated 2024).

Target: HEK293 cells with stable expression of the GRIN1 gene and tetracycline-inducible expression of the GRIN2B gene (NMDA receptor, NR2B) (Homo sapiens, UniProt Q13224)
Assay: Fluo-8 Ca2+ flux assay: reversal of Ro 25-6981-mediated suppression of the Ca2+ response to co-agonist (glutamate/glycine); further: test concentration or dose not given here
Assay type: cell-based
Details: reversal of the Ro 25-6981 suppression of the Ca2+ response to co-agonist (glutamate/glycine)

HEK293 cells with stable expression of the GRIN1 gene and tetracycline-inducible expression of the GRIN2B gene (NMDA receptor, NR2B), sequence (Q13224 27-1484, other chains not shown): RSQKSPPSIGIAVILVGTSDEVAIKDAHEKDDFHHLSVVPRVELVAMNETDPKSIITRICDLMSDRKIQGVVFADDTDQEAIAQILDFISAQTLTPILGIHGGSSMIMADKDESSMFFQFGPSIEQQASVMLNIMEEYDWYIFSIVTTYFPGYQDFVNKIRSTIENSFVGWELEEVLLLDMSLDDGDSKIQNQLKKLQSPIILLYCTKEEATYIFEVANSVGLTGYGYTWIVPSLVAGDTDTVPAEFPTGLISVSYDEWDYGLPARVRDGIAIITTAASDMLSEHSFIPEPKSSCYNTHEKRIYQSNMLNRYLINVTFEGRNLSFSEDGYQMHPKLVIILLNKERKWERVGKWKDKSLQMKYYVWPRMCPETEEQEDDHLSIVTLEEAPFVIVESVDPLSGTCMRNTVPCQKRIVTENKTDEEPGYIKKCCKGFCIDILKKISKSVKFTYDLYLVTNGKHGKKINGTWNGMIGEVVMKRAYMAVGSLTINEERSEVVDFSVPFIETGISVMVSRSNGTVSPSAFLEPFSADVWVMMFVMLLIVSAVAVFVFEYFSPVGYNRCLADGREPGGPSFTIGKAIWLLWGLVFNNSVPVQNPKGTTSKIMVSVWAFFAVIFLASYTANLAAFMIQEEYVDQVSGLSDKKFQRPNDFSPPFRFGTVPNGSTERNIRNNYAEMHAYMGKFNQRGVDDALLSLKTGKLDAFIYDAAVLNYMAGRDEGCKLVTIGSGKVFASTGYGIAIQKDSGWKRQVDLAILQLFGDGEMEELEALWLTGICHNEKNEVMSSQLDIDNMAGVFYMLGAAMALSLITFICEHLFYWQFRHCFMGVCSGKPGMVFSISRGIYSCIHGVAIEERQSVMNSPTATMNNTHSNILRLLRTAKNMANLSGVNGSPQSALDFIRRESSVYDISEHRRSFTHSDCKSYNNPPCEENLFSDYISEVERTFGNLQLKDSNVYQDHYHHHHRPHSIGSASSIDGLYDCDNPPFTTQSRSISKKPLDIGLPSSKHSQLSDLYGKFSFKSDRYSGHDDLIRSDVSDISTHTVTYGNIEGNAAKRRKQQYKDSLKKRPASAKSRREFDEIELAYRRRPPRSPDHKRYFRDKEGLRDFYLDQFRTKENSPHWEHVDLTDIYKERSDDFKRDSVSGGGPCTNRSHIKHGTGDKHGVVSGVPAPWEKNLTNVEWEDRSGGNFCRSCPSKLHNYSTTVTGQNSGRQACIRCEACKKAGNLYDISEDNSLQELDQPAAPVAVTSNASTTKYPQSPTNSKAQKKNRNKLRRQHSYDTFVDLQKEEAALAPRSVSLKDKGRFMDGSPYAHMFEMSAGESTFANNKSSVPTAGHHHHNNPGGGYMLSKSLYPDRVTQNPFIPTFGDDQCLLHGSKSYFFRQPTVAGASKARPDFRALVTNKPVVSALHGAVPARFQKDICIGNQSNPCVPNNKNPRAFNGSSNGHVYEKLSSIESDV

Response Recovered (%)	SMILES
8	O=C(Cn1cnc2occ(-c3ccc(Cl)cc3)c2c1=O)N1CC(F)(F)C1 [Example 389, 5-(4-chlorophenyl)-3-(2-(3,3-difluoroazetidin-1-yl)-2-oxoethyl)furo[2,3-d]pyrimidin-4(3H)-one]
77	O=C(Cn1ccn2ccc(-c3ccc(F)c(C(F)(F)F)c3)c2c1=O)N1CCCC1 [Example 391, 8-(4-fluoro-3-(trifluoromethyl)phenyl)-2-(2-oxo-2-(pyrrolidin-1-yl)ethyl)pyrrolo[1,2-a]pyrazin-1(2H)-one]
33	O=C(Cn1ccn2ncc(-c3ccc(F)c(C(F)(F)F)c3)c2c1=O)N1CC(F)C1 [Example 322, 3-(4-fluoro-3-(trifluoromethyl)phenyl)-5-(2-(3-fluoroazetidin-1-yl)-2-oxoethyl)pyrazolo[1,5-a]pyrazin-4(5H)-one]
42	O=C(Cn1cnc2c(c(-c3ccc(F)c(Cl)c3)cn2C2CC2)c1=O)N1CCCC1 [Example 192, 5-(3-chloro-4-fluorophenyl)-7-cyclopropyl-3-(2-oxo-2-(pyrrolidin-1-yl)ethyl)-3H-pyrrolo[2,3-d]pyrimidin-4(7H)-one]
90	O=C(Cn1ccc2scc(-c3ccc(C(F)(F)F)c(Cl)c3)c2c1=O)N1CCC(F)C1 (stereo not shown) [Example 13, 3-(3-chloro-4-(trifluoromethyl)phenyl)-5-(2-(3-fluoropyrrolidin-1-yl)-2-oxoethyl)thieno[3,2-c]pyridin-4(5H)-one]
4.1	CN(CC(F)(F)F)C(=O)Cn1ccc2scc(-c3ccc(F)c(Cl)c3)c2c1=O [Example 93, 2-(3-(3-chloro-4-fluorophenyl)-4-oxothieno[3,2-c]pyridin-5(4H)-yl)-N-methyl-N-(2,2,2-trifluoroethyl)acetamide]
130	O=C(Cn1cc(/C=N/O)c2scc(-c3ccc(F)c(C(F)(F)F)c3)c2c1=O)N1CCC(F)C1 (stereo not shown) [Example 134, (E)-3-(4-fluoro-3-(trifluoromethyl)phenyl)-5-(2-(3-fluoropyrrolidin-1-yl)-2-oxoethyl)-4-oxo-4,5-dihydrothieno[3,2-c]pyridine-7-carbaldehyde oxime]
2	O=C(Cn1cnc2csc(-c3ccc(C(F)(F)F)cc3)c2c1=O)N1CCCC1C(F)(F)F (stereo not shown) [Example 357, 3-(2-oxo-2-(2-(trifluoromethyl)pyrrolidin-1-yl)ethyl)-5-(4-(trifluoromethyl)phenyl)thieno[3,4-d]pyrimidin-4(3H)-one]
110	O=C(Cn1ccn2c(C3CC3)nc(-c3ccc(Cl)c(Cl)c3)c2c1=O)N1CC(F)(CF)C1 [Example 440, 3-cyclopropyl-1-(3,4-dichlorophenyl)-7-(2-(3-fluoro-3-(fluoromethyl)azetidin-1-yl)-2-oxoethyl)imidazo[1,5-a]pyrazin-8(7H)-one]
130	Cn1cnc(-n2cc(-c3ccc(F)c(Cl)c3)c3c(=O)n(CC(=O)N4CC(C)(F)C4)ccc32)n1 [Example 269, 3-(3-chloro-4-fluorophenyl)-5-(2-(3-fluoro-3-methylazetidin-1-yl)-2-oxoethyl)-1-(1-methyl-1H-1,2,4-triazol-3-yl)-1H-pyrrolo[3,2-c]pyridin-4(5H)-one]
91	O=C(Cn1ccc2[nH]cc(-c3ccc(F)c(C(F)(F)F)c3)c2c1=O)N1CCCC1 [Example 219, 3-(4-fluoro-3-(trifluoromethyl)phenyl)-5-(2-oxo-2-(pyrrolidin-1-yl)ethyl)-1H-pyrrolo[3,2-c]pyridin-4(5H)-one]
130	O=C(Cn1ccn2ccc(-c3ccc(Cl)c(Cl)c3)c2c1=O)N1CC(F)(CF)C1 [Example 403, 8-(3,4-dichlorophenyl)-2-(2-(3-fluoro-3-(fluoromethyl)azetidin-1-yl)-2-oxoethyl)pyrrolo[1,2-a]pyrazin-1(2H)-one]
15	CCC1(F)CN(C(=O)Cn2ccc3scc(-c4cnc(F)c(F)c4)c3c2=O)C1 [Example 143, 3-(5,6-difluoropyridin-3-yl)-5-(2-(3-ethyl-3-fluoroazetidin-1-yl)-2-oxoethyl)thieno[3,2-c]pyridin-4(5H)-one]
43	Cc1cn(CC(=O)N2CCC(F)C2)c(=O)c2c(-c3ccc(Cl)c(Cl)c3)ccn12 (stereo not shown) [Example 413, 8-(3,4-dichlorophenyl)-2-(2-(3-fluoropyrrolidin-1-yl)-2-oxoethyl)-4-methylpyrrolo[1,2-a]pyrazin-1(2H)-one]
3	O=C(Cn1cnc2ccn(-c3ccc(Cl)cc3)c2c1=O)N1CCCC1 [Example 376, 5-(4-chlorophenyl)-3-(2-oxo-2-(pyrrolidin-1-yl)ethyl)-3H-pyrrolo[3,2-d]pyrimidin-4(5H)-one]
29	O=C(Cn1cc(C2CC2)c2scc(-c3ccc(Cl)c(C(F)(F)F)c3)c2c1=O)N1CCCC1 [Example 101, 3-(4-chloro-3-(trifluoromethyl)phenyl)-7-cyclopropyl-5-(2-oxo-2-(pyrrolidin-1-yl)ethyl)thieno[3,2-c]pyridin-4(5H)-one]

Response Recovered (%)	SMILES
52	Cn1cnc(-n2cc(-c3ccc(F)c(C(F)(F)F)c3)c3c(=O)n(CC(=O)N4CC(C)(F)C4)ccc32)n1 [Example 268, 3-(4-fluoro-3-(trifluoromethyl)phenyl)-5-(2-(3-fluoro-3-methylazetidin-1-yl)-2-oxoethyl)-1-(1-methyl-1H-1,2,4-triazol-3-yl)-1H-pyrrolo[3,2-c]pyridin-4(5H)-one]
41	O=C(Cn1ccc2scc(-c3ccc(Cl)c(F)c3)c2c1=O)N1CC(F)(F)C1 [Example 6, 3-(4-chloro-3-fluorophenyl)-5-(2-(3,3-difluoroazetidin-1-yl)-2-oxoethyl)thieno[3,2-c]pyridin-4(5H)-one]
31	O=C(Cn1cnc2[nH]cc(-c3ccc(Cl)cc3)c2c1=O)N1CCCC1 [Example 150, 5-(4-chlorophenyl)-3-(2-oxo-2-(pyrrolidin-1-yl)ethyl)-3H-pyrrolo[2,3-d]pyrimidin-4(7H)-one]
17	O=C(Cn1ccc2scc(-c3ccc(F)c(C(F)(F)F)c3)c2c1=O)N1CC(F)(c2ccccc2)C1 [Example 54, 3-(4-fluoro-3-(trifluoromethyl)phen-yl)-5-(2-(3-fluoro-3-phenylazetidin-1-yl)-2-oxoethyl)thieno[3,2-c]pyridin-4(5H)-one]
71	O=C(Cn1ccc2[nH]cc(-c3ccc(F)c(Cl)c3)c2c1=O)N1CC(F)(F)C1 [Example 218, 3-(3-chloro-4-fluorophenyl)-5-(2-(3,3-difluoroazetidin-1-yl)-2-oxoethyl)-1H-pyrrolo[3,2-c]pyridin-4(5H)-one]
5.2	Cn1cc(-n2cc(-c3ccc(Cl)c(Cl)c3)c3c(=O)n(CC(=O)N4CC(C)(F)C4)ccc32)cn1 [Example 284, 3-(3,4-dichlorophenyl)-5-(2-(3-fluoro-3-methylazetidin-1-yl)-2-oxoethyl)-1-(1-methyl-1H-pyrazol-4-yl)-1H-pyrrolo[3,2-c]pyridin-4(5H)-one]
15	O=C(Cn1cc(N2CCCC2)c2scc(-c3ccc(F)c(C(F)(F)F)c3)c2c1=O)N1CCCC1 [Example 114, 3-(4-fluoro-3-(trifluoromethyl)phenyl)-5-(2-oxo-2-(pyrrolidin-1-yl)ethyl)-7-(pyrrolidin-1-yl)thieno[3,2-c]pyridin-4(5H)-one]
64	O=C(Cn1ccc2scc(-c3cnc(Cl)c(Cl)c3)c2c1=O)N1CC(F)(C2CC2)C1 [Example 70, 5-(2-(3-cyclopropyl-3-fluoroazetidin-1-yl)-2-oxoethyl)-3-(5,6-dichloropyridin-3-yl)thieno[3,2-c]pyridin-4(5H)-one]
−3.8	O=C(Cn1ccc2scc(-c3cncc(Cl)n3)c2c1=O)N1CC(F)(CF)C1 [Example 146, 3-(6-chloropyrazin-2-yl)-5-(2-(3-fluoro-3-(fluoromethyl)azetidin-1-yl)-2-oxoethyl)thieno[3,2-c]pyridin-4(5H)-one]
34	O=C(Cn1cnc2c(c(-c3ccc(F)c(C(F)(F)F)c3)cn2CCO)c1=O)N1CCC(F)C1 (stereo not shown) [Example 196, 5-(4-fluoro-3-(trifluoromethyl)phenyl)-3-(2-(3-fluoropyrrolidin-1-yl)-2-oxoethyl)-7-(2-hydroxyethyl)-3H-pyrrolo[2,3-d]pyrimidin-4(7H)-one]
59	Cc1cn(CC(=O)N2CCC(F)C2)c(=O)c2c(-c3ccc(F)c(C(F)(F)F)c3)ccn12 (stereo not shown) [Example 411, 8-(4-fluoro-3-(trifluoromethyl)phenyl)-2-(2-(3-fluoropyrrolidin-1-yl)-2-oxoethyl)-4-methylpyrrolo[1,2-a]pyrazin-1(2H)-one]
41	CC1(F)CN(C(=O)Cn2ccc3scc(-c4ccc(F)c(F)c4)c3c2=O)C1 [Example 20, 3-(3,4-difluorophenyl)-5-(2-(3-fluoro-3-methylazetidin-1-yl)-2-oxoethyl)thieno[3,2-c]pyridin-4(5H)-one]
71	O=C(Cn1cnc2c(c(-c3ccc(Cl)c(C(F)(F)F)c3)cn2C2CC2)c1=O)N1CCCC1 [Example 190, 5-(4-chloro-3-(trifluoromethyl)phenyl)-7-cyclopropyl-3-(2-oxo-2-(pyrrolidin-1-yl)ethyl)-3H-pyrrolo[2,3-d]pyrimidin-4(7H)-one]
140	Cn1cc(-n2cc(-c3ccc(F)c(Cl)c3)c3c(=O)n(CC(=O)N4CC(C)(F)C4)ccc32)nn1 [Example 271, 3-(3-chloro-4-fluorophenyl)-5-(2-(3-fluoro-3-methylazetidin-1-yl)-2-oxoethyl)-1-(1-methyl-1H-1,2,3-triazol-4-yl)-1H-pyrrolo[3,2-c]pyridin-4(5H)-one]
74	CCC1(F)CN(C(=O)Cn2ccc3scc(-c4cnc(C)c(Cl)c4)c3c2=O)C1 [Example 91, 3-(5-chloro-6-methylpyridin-3-yl)-5-(2-(3-ethyl-3-fluoroazetidin-1-yl)-2-oxoethyl)thieno[3,2-c]pyridin-4(5H)-one]
